Data published in patent publication US20040146959A1, “Fluorescent enzyme assay methods and compositions” (priority 2002, published 2004).
Where no end group is shown, it is not given here. [ ]: non-standard residue; d: D form. The star is where a group is joined. C13 = acyl group coded C13, not further defined; C15 = acyl group coded C15, not further defined; C17 = acyl group coded C17, not further defined; Palmitoyl = CCCCCCCCCCCCCCCC(=O)*; pS = N[C@@H](COP(=O)(O)O)C(=O)O; K(dye2) = not defined here; OOO = not defined here

Experiments:
protein kinase A = biological target: T1, protein kinase A (Bos taurus, UniProt P00517); experiment: Detection of protein kinase activity, fluorescence increase (Examples 4B, 5B, 6B); assay type: biochemical; conditions: for time to maximum fluorescence: after addition of ATP (compounds 7, 8) or enzyme (compound 9); for fold increase in fluorescence: maximum vs starting fluorescence; for maximum fluorescence after start of the kinase reaction / fluorescence before start of the kinase reaction: substrate 1 μM; for maximum fluorescence after start of the kinase reaction: ATP 0.5 mM, protein kinase A 35 or 7 units; for fluorescence before start of the kinase reaction: Tris pH 8.1 20 mM, MgCl2 1 mM, 100 μL
T1 construct: purchased Promega (Madison, Wis.)
Description: Fluorescence data were collected on a Perkin-Elmer LS-50B luminescence spectrometer. […] ATP was added to a final concentration of 0.5 mM and the fluorescence monitored, reaching a maximum of 180 fluorescence units after 6 minutes, or a 5-fold increase.
Fluorescence data were collected on a Perkin-Elmer LS-50B luminescence spectrometer. […] ATP was added to a final concentration of 0.5 mM and the fluorescence monitored, reaching a maximum of 493 fluorescence units after 5 minutes, or a 3.5-fold increase.
Fluorescence data were collected on a Perkin-Elmer LS-50B luminescence spectrometer. […] Protein kinase A (7 Units) was added and the fluorescence monitored, reaching a maximum of 420 fluorescence units after 3 minutes, or an 8-fold increase.

PKC = experiment: Phosphorylation assay of linker substrates (Table 3), PKC; assay type: biochemical; conditions: substrate conc 4 or 6 uM (column Conc)
Description: Protein kinase C reaction mixture aliquots (9 μL each) containing 2 μL 5× buffer (composed of 100 mM Tris, pH 8.1+25 mM MgCl2, and 0.5% v/v β-mercaptoethanol) 1 μL Upstate Lipid Activator, 0.05 μL Promega Protein Kinase C, 5.55 μL deionized water, and 0.4 μL substrate were added to wells of the 384 well plate. The reactions were initiated by the addition of 1 μL of Sigma-Aldrich ATP into each well.

PKA = biological target: T2, PKA (Bos taurus, UniProt P00517); experiment: Phosphorylation assay of linker substrates (Table 3), PKA; assay type: biochemical; conditions: substrate conc 8 uM
T2 construct: purchased Promega (Madison, Wis.)

Akt = Akt (Homo sapiens, UniProt P31749); experiment: Phosphorylation assay of linker substrates (Table 3), Akt; assay type: biochemical; conditions: substrate conc 8 uM
Chain of Akt (P31749 whole entry): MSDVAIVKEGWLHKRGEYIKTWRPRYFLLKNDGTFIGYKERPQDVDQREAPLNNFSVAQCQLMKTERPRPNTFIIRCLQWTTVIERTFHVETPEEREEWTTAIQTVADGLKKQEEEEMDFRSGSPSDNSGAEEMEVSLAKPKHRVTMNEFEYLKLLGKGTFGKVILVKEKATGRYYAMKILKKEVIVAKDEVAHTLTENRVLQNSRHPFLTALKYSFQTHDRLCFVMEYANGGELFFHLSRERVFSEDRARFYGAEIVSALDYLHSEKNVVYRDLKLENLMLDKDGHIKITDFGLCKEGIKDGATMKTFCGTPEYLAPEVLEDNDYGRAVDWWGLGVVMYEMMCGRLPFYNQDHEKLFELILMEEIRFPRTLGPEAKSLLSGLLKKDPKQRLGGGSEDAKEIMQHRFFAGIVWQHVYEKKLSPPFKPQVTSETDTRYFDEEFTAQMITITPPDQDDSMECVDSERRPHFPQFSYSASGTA

Src, lyn, fyn = experiment: Phosphorylation assay of linker substrates (Table 3), Src, lyn, fyn; assay type: biochemical; conditions: substrate conc 8 uM
MAPKAP2 = MAPKAP2 (Homo sapiens, UniProt P49137); experiment: Phosphorylation assay of linker substrates (Table 3), MAPKAP2; assay type: biochemical; conditions: substrate conc 8 uM
Chain of MAPKAP2 (P49137 whole entry): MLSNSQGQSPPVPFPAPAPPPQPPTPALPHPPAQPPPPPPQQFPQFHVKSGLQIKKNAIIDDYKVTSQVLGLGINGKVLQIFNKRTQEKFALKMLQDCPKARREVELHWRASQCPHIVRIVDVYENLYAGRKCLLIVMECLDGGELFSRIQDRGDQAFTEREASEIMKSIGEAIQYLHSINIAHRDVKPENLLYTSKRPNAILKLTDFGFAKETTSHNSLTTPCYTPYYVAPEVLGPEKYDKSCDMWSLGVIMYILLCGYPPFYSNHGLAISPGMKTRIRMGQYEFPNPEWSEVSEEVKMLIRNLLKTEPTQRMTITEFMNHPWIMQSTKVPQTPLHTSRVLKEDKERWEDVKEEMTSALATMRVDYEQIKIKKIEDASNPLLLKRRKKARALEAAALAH

MAPK = experiment: Phosphorylation assay of linker substrates (Table 3), MAPK; assay type: biochemical; conditions: substrate conc 16 uM
[1] = biological target: T3, pp60^c-src-related protein tyrosine kinase (Homo sapiens, UniProt P12931); experiment: Detection of pp60c-src-related protein tyrosine kinase (Example 10B); assay type: biochemical; conditions: substrate 2.5 μM, 5 μL reaction volume, ATP 50 μM
T3 construct: purchased Upstate, Inc. (Lake Placid, N.Y.) 14-326
Description: Example 10 describes an assay for pp60^c-src-related protein tyrosine kinase. […] Enzyme reactions were performed in triplicate for a single substrate concentration, and two no-enzyme controls were also performed.
Five wells of a Corning 384-well plate, black with a non-binding surface and low volume wells (cat. No. 3676) (Corning, Inc., Acton, Mass.) were used. Each well contained 5 μL of a solution containing compound 9 (2.5 μM), MgCl2 (1 mM), Tris buffer, pH 8.1 (20 mM) and src, active (1 unit, cat. No. 14-326). The kinase reaction was initiated in three of the wells by the addition of 1.25 μL of ATP (200 μM) to a final concentration of 50 μM.

[2] = biological target: E. coli alkaline phosphatase (Escherichia coli, UniProt P00634); experiment: Detection of phosphatase activity (Example 2B); assay type: biochemical; conditions: substrate 20 μM, Tris HCl pH 9, MgCl2 1 mM, 0.5 units enzyme
Chain of E. coli alkaline phosphatase (P00634 22-471): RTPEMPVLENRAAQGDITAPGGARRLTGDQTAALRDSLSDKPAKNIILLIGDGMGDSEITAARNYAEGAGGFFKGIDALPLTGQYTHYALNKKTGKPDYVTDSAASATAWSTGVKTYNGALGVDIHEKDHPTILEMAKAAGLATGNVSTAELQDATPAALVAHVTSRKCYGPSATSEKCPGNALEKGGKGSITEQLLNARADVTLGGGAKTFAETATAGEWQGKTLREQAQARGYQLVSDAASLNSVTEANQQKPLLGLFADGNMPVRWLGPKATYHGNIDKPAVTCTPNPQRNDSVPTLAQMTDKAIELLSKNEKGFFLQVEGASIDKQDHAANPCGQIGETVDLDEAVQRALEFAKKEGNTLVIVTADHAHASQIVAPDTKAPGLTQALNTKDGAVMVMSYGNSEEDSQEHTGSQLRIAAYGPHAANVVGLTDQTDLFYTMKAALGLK
Description: Phosphatase reactions were performed in a 100 μL reaction mixture containing compound 2 (20 μM), Tris HCl buffer (50 mM) at pH 9, and MgCl2 (1 mM). Reactions were initiated by adding 0.5 units of E. coli alkaline phosphatase in 1 to 5 μL. The fluorescence was monitored on a Perkin-Elmer LS-50B luminescence spectrometer with excitation at 480 nm and emission at 525 and slit widths at 5 nm.

[3] = test system: T4, compound 1, palmitoyl-FAM-S(OPO3^2-)LRRRRFSK(Ac)G-amide
T4 sequence: SLRRRRFSKG

[4] = test system: CCCCCCCCCCCCCCCC(=O)NCc1ccc(C(=O)NCc2c(O)ccc3c2Oc2cc(O)ccc2C32OC(=O)c3cc(C(=O)N[C@@H](COP(=O)(O)O)C(=O)N[C@@H](CC(C)C)C(=O)N[C@@H](CCCNC(=N)N)C(=O)N[C@@H](CCCNC(=N)N)C(=O)N[C@@H](CCCNC(=N)N)C(=O)N[C@@H](CCCNC(=N)N)C(=O)N[C@@H](Cc4ccccc4)C(=O)N[C@@H](CO)C(=O)N[C@@H](CCCCNC(C)=O)C(=O)NCC(N)=O)ccc32)cc1; experiment: Protein kinase A detection, double reciprocal plot of initial velocities (Example 1B); assay type: biochemical; conditions: other: substrate 0.15, 0.3, 0.6 μM, Tris pH 8.5, Mg-ATP 1 mM, cAMP 1 μM, catalytic subunit 2 units
Description: (1 μM), and different concentrations of compound 1 (0.15 μM, 0.3 μM, and 0.6 μM), to which the catalytic subunit of protein kinase A (2 units) was then added. Fluorescence was monitored on a Perkin-Elmer LS-50B luminescence spectrometer with 500 nm excitation and emission at 530 nm, and slit width at 5 nm.

## (5-carboxy-2,7-dipyridyl-sulfofluorescein)-K-(N-perfluoro-octanoyl-proline)-LRRASLG-amide [Compound 8]
Protein kinase A
  time to maximum fluorescence: 5 min
  fold increase in fluorescence: 3.5 fold
  maximum fluorescence after start of the kinase reaction: 493 fluorescence units
  fluorescence before start of the kinase reaction: 140 fluorescence units

## (N-palmitoyl)-Lys(N-5-carboxy-2,′7′-dipyridyl-sulfofluorescein)-OOO-RREGSFR-amide (RREGSFR-NH2; not fully specified (N-terminus); printed as C16-OOOK(dye2)-RREGSFR-NH2) [Compound 10]
PKC
  Fold increase: 4.5×
  RFUs at 10 uL (final): 3000 RFUs
  RFUs at 10 uL (initial): 650 RFUs

## C13-K(dye2)-LRRASLG-NH2 ({C13-K(dye2)}-LRRASLG-NH2; reading uncertain; also: printed as C13-K(dye2)-LRRASLG-NH2) [PKA substrate; dye2 = 5-carboxy-2′,7′-dipyridyl-sulfonefluorescein]
PKA
  Fold increase: 5×
  RFUs at 10 uL (final): 5000 RFUs
  RFUs at 10 uL (initial): 1000 RFUs

## C13-OOOK(dye2)-LRRASLG-NH2 (not fully specified (N-terminus); printed as C13-OOOK(dye2)-LRRASLG-NH2) [PKA substrate; O = 2-aminoethoxy-2-ethoxyacetyl linker]
PKA
  Fold increase: 5×
  RFUs at 10 uL (final): 5000 RFUs
  RFUs at 10 uL (initial): 1000 RFUs

## C15-OOOK(dye2)RPRTSSF-NH2 ({C15-OOO-K(dye2)}-RPRTSSF-NH2; reading uncertain; also: printed as C15-OOOK(dye2)RPRTSSF-NH2) [Akt substrate]
Akt
  Fold increase: 4×
  RFUs at 10 uL (final): 7500 RFUs
  RFUs at 10 uL (initial): 1500 RFUs

## C16-OOOK(dye2)RIGEGTYGVVRR-NH2 ({Palmitoyl-OOO-K(dye2)}-RIGEGTYGVVRR-NH2; reading uncertain; also: printed as C16-OOOK(dye2)RIGEGTYGVVRR-NH2) [Src, lyn, fyn substrate]
Src, lyn, fyn
  Fold increase: 6.5×
  RFUs at 10 uL (final): 6500 RFUs
  RFUs at 10 uL (initial): 1000 RFUs

## C16-OOOK(dye2)RLNRTLSV-NH2 ({Palmitoyl-OOO-K(dye2)}-RLNRTLSV-NH2; reading uncertain; also: printed as C16-OOOK(dye2)RLNRTLSV-NH2) [MAPKAP2 substrate]
MAPKAP2
  Fold increase: 4×
  RFUs at 10 uL (final): 3200 RFUs
  RFUs at 10 uL (initial): 800 RFUs

## C17-OOOK(dye2)PRTPGGR-NH2 ({C17-OOO-K(dye2)}-PRTPGGR-NH2; reading uncertain; also: printed as C17-OOOK(dye2)PRTPGGR-NH2) [MAPK substrate]
MAPK
  Fold increase: 5×
  RFUs at 10 uL (final): 5700 RFUs
  RFUs at 10 uL (initial): 1100 RFUs

## C17-OOOK(tet)-RQGSFRA-NH2 ({C17-OOO-K(TET)}-RQGSFRA-NH2; reading uncertain; also: printed as C17-OOOK(tet)-RQGSFRA-NH2) [PKC substrate; tet = 2′,7′,4,7-tetachloro-5-carboxy fluorescein]
PKC
  Fold increase: 7×
  RFUs at 10 uL (final): 4900 RFUs
  RFUs at 10 uL (initial): 700 RFUs

## N-(1H, 1H,2H,2H-Perfluorodecyl-1-thiol-2-acetyl)-K-(5-carboxysulfofluorescein) LRRASL-G-amide [Compound 7]
Protein kinase A
  time to maximum fluorescence: 6 min
  fold increase in fluorescence: 5 fold
  maximum fluorescence after start of the kinase reaction: 180 fluorescence units
  fluorescence before start of the kinase reaction: 35 fluorescence units

## N-AcetylRGRPRTSSFAEG-OOOK(N-5-Carboxysulfo-fluroescein)K(N-Octadecanoyl)-amide [Compound 9]
Protein kinase A
  time to maximum fluorescence: 3 min
  fold increase in fluorescence: 8 fold
  maximum fluorescence after start of the kinase reaction: 420 fluorescence units
  fluorescence before start of the kinase reaction: 50 fluorescence units

## N-palmitoyl-Lys(ε-N-5-carboxy-sulfonefluorescein)KVEKIGEGTYGVVKK-amide ({Palmitoyl-K(5-carboxy-sulfonefluorescein)}-KVEKIGEGTYGVVKK-NH2) [Compound 13]
[1]
  fluorescent signal on reaction with kinase: a strong fluorescent signal with high signal-to-noise was observed

## palmitoyl-LRRRRFS(OPO3^2−)K(5-FAM)G-amide (Palmitoyl-LRRRRF[pS]-{K(5-FAM)-Gly-NH2}) [Compound 2]
[2]
  change in fluorescence over time on reaction with phosphatase: immediate and significant increase in fluorescence over time

## protein kinase A
[3]
  Km (double reciprocal plot of initial velocities, fluorescence kinase assay): a Km value of 0.3 µM

## protein kinase A (Bos taurus)
[4]
  Km: 0.3 µM
